In US20260176289A1, “SMALL MOLECULE INHIBITORS OF KRAS PROTEINS” (Merck Sharp & Dohme LLC, priority 2022, published 2026):

Assays:
[1] = target: T1, KRAS G12C (amino acids 1-169) (Homo sapiens, UniProt P01116, G12C); assay: SOS-catalyzed nucleotide exchange assay (Procedure B, BODIPY FL GDP displacement), KRAS G12C; assay type: biochemical; details: read-out: KRAS G12C GNE IC50
T1 construct: made in house; host or cells: E. coli
Procedure: (§1) Procedure for SOS-Catalyzed Nucleotide Exchange Assay for KRAS-G12C/D/V/WT (Procedure B)
(§2) Recombinant KRAS G12C (amino acids 1-169, SEQ ID NO:9), KRAS G12D (amino acids 1-169, SEQ ID NO: 10), KRAS G12V (amino acids 1-169, SEQ ID NO: 11), KRAS WT (amino acids 1-169, SEQ ID NO:12) and SOS1 (amino acids 564-1049, SEQ ID NO: 13) proteins were expressed in E. coli and purified by affinity chromatography. To prepare each BODIPY™ FL GDP-bound KRAS protein, 50 μM KRAS proteins were incubated with 0.5 mM BODIPY™ FL GDP (Invitrogen, G22360) in a loading buffer (20 mM Tris-HCl pH 7.5, 50 mM NaCl, 1 mM DTT and 2.5 mM EDTA) for 1 hour on ice. After the incubation, MgCl2 was added to a final concentration of 10 mM, followed by an incubation at room temperature for 30 minutes. The mixtures were allowed to pass through a NAP-5 column to remove free nucleotides and purified BODIPY™ FL GDP-bound KRAS G12C, G12D, G12V and WT proteins were used for compound evaluation.
(§3) The inhibitory activity of compounds on recombinant KRAS is measured by the displacement of the bound BODIPY™ GDP. Specifically, 2.5 nM of each BODIPY™ FL GDP-bound KRAS complex was incubated with various concentrations of compound in a reaction buffer (20 mM Tris-HCl pH 7.5, 100 mM NaCl, 1 mM MgCl2, 2 mM DTT, 0.1% Tween 20) at 25° C. for 1 hour. After the incubation, recombinant SOS1 and GMPPNP (Jena Bioscience GmbH, NU-401) were added and incubated at room temperature for 30 minutes to proceed SOS1-dependent GDP-GTP exchange reaction on KRAS. Displacement of BODIPY™ FL GDP by Guanosine-5′-[(β,γ)-imido]triphosphate, Tetralithium salt (GMPPNP) was measured by calculating the ratio of fluorescence intensities of BODIPY™ FL before and after the exchange reaction. Percent Inhibition was calculated by setting the fluorescence ratio from the reaction without test compound (DMSO control) and the fluorescence ratio from the reaction without SOS1 and GMPPNP as 0% and 100% inhibition, respectively. Dose response curves were analyzed using a 4-parameter logistic model to calculate IC50 values.

[2] = target: T2, KRAS G12D (amino acids 1-169) (Homo sapiens, UniProt P01116, G12D); assay: SOS-catalyzed nucleotide exchange assay (Procedure B, BODIPY FL GDP displacement), KRAS G12D; assay type: biochemical; details: read-out: KRAS G12D GNE IC50
T2 construct: made in house; host or cells: E. coli
Procedure: as §1, §2, §3

[3] = target: T3, KRAS G12V (amino acids 1-169) (Homo sapiens, UniProt P01116, G12V); assay: SOS-catalyzed nucleotide exchange assay (Procedure B, BODIPY FL GDP displacement), KRAS G12V; assay type: biochemical; details: read-out: KRAS G12V GNE IC50
T3 construct: made in house; host or cells: E. coli
Procedure: as §1, §2, §3

[4] = target: T4, KRAS WT (amino acids 1-169) (Homo sapiens, UniProt P01116); assay: SOS-catalyzed nucleotide exchange assay (Procedure B, BODIPY FL GDP displacement), KRAS WT; assay type: biochemical; details: read-out: KRAS WT GNE IC50
T4 construct: made in house; host or cells: E. coli
Procedure: as §1, §2, §3

KRAS-WT = KRAS-WT (Homo sapiens, UniProt P01116); assay: SOS-catalyzed nucleotide exchange assay (Procedure A, TR-FRET), KRAS-WT; assay type: biochemical; details: nucleotide exchange, read-out: KRAS WT GNE IC50
Summary of the method: (§4)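 Biotinylated RAS (KRAS-G12C carries C51S/C80L/C118S; others WT background) preloaded with Bodipy-GDP plus Tb-streptavidin, preincubated with compound 60 min at RT, then human SOS and 3 mM GTP added. Final RAS/SOS: G12C 3 nM/40 nM, 60 min; WT 1 nM/40 nM, 60 min; G12V 1.25 nM/160 nM, 90 min; NRAS 1.25 nM/40 nM, 60 min. TR-FRET 520/495 ratio normalized to DMSO and saturating inhibitor; 10-point curves fit four-parameter logistic.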

[5] = target: KRAS-G12C (C51S/C80L/C118S) (Homo sapiens, UniProt P01116, C118S/C51S/C80L/G12C); assay: SOS-catalyzed nucleotide exchange assay (Procedure A, TR-FRET), KRAS-G12C; assay type: biochemical; details: nucleotide exchange, Procedure A; read-out: KRAS G12C GNE IC50
Summary of the method: as §4

KRAS-G12D = KRAS-G12D (Homo sapiens, UniProt P01116, G12D); assay: SOS-catalyzed nucleotide exchange assay (Procedure A, TR-FRET), KRAS-G12D; assay type: biochemical; details: nucleotide exchange, read-out: KRAS G12D GNE IC50
Summary of the method: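 Signal ratio (520/495 nm, excitation 340 nm) reports Bodipy-GDP retention on biotinylated RAS after SOS-catalyzed exchange with 3 mM GTP. SOS was 40 nM, except 160 nM for G12V. Room-temperature exchange lasted 60 min (90 min for G12V), following a 60 min compound preincubation.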

KRAS-G12V = KRAS-G12V (Homo sapiens, UniProt P01116, G12V); assay: SOS-catalyzed nucleotide exchange assay (Procedure A, TR-FRET), KRAS-G12V; assay type: biochemical; details: nucleotide exchange, read-out: KRAS G12V GNE IC50
Summary of the method: as §4

KRAS-G13D = KRAS-G13D (Homo sapiens, UniProt P01116, G13D); assay: SOS-catalyzed nucleotide exchange assay (Procedure A, TR-FRET), KRAS-G13D; assay type: biochemical; details: nucleotide exchange, Procedure A; read-out: KRAS G13D GNE IC50
MKN-1 cells = assay: Cellular phospho-ERK assay, MKN-1 cells (amplified wild-type KRAS); assay type: cell-based; details: Homo sapiens, amplified wild-type KRAS, 2 hours, read-out: MKN1 pERK IC50
Summary of the method: (§5)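 Cells were seeded overnight, then treated 2 h at 37° C with compound in a 10-point, 1:3 titration from 30 μM top final concentration. Lysates were assayed by AlphaLISA SureFire Ultra for p-ERK and total ERK. IC50 came from a 4-parameter logistic fit of the p-ERK/total ERK ratio.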

PANC08.13 cells = assay: Cellular phospho-ERK assay, PANC08.13 cells (homozygous KRAS-G12D); assay type: cell-based; details: Homo sapiens, PANC-08-13, KRAS-G12D, 2 hours, read-out: PANC-08.13 pERK IC50
Summary of the method: as §5

AsPC-1 cells = assay: Cellular phospho-ERK assay, AsPC-1 cells (homozygous KRAS-G12D); assay type: cell-based; details: Homo sapiens, ASPC1, 2 h, KRAS-G12D, 2 hours, read-out: AsPC1 pERK IC50
Summary of the method: as §5

SW620 cells = assay: Cellular phospho-ERK assay, SW620 cells (homozygous KRAS-G12V); assay type: cell-based; details: Homo sapiens, SW-620, KRAS-G12V, 2 hours, read-out: SW620 pERK IC50
Summary of the method: as §5

Chain of KRAS-G12C (C51S/C80L/C118S) (P01116 with tags, fused parts or gaps isoform P01116-2 G12C/C51S/C80L/C118S): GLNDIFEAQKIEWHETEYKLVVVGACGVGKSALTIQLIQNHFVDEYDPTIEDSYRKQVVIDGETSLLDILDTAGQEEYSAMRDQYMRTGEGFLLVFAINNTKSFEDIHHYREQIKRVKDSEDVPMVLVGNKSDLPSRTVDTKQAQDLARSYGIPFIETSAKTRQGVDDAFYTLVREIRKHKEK
T3 sequence (P01116 with tags, fused parts or gaps isoform P01116-2 G12V): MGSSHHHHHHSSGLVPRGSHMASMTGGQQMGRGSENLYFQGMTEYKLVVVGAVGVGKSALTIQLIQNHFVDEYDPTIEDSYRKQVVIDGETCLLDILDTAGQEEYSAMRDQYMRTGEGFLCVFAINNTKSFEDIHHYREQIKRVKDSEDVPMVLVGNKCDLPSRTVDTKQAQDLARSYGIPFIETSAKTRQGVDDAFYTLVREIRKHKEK
Chain of KRAS-G12D (P01116 with tags, fused parts or gaps isoform P01116-2 G12D): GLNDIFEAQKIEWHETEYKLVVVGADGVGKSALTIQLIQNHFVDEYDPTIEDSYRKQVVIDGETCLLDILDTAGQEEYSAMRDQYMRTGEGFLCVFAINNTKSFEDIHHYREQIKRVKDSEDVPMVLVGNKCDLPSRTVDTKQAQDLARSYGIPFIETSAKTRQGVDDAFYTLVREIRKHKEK
T4 sequence (P01116 with tags, fused parts or gaps isoform P01116-2): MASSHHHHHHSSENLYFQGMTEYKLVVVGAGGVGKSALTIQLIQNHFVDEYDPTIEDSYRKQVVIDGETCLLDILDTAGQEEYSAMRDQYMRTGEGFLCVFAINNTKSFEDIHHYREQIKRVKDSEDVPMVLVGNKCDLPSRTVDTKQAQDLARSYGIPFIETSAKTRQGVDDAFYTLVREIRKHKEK
Chain of KRAS-WT (P01116 with tags, fused parts or gaps isoform P01116-2): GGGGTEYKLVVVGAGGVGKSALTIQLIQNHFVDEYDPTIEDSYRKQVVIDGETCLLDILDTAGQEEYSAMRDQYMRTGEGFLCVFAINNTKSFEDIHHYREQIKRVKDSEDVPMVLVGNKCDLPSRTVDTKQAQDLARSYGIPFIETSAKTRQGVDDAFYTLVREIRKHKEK
Chain of KRAS-G12V (P01116 with tags, fused parts or gaps isoform P01116-2 G12V): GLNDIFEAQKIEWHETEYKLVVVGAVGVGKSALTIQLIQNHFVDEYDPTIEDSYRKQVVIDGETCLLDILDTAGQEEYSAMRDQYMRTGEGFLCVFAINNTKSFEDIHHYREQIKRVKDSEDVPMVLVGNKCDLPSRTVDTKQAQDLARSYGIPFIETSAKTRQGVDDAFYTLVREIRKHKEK
T1 sequence (P01116 with tags, fused parts or gaps isoform P01116-2 G12C): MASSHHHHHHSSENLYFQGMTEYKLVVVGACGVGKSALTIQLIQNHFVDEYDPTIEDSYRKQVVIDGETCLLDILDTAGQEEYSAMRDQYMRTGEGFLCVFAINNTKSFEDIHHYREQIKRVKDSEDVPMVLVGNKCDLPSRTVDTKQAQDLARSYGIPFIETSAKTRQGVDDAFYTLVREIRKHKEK
Chain of KRAS-G13D (P01116 with tags, fused parts or gaps isoform P01116-2 G13D): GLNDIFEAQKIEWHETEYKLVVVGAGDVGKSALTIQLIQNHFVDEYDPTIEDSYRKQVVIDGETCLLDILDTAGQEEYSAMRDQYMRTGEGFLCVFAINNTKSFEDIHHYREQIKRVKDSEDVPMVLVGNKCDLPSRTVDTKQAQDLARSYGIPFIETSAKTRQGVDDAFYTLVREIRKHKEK
T2 sequence (P01116 with tags, fused parts or gaps isoform P01116-2 G12D): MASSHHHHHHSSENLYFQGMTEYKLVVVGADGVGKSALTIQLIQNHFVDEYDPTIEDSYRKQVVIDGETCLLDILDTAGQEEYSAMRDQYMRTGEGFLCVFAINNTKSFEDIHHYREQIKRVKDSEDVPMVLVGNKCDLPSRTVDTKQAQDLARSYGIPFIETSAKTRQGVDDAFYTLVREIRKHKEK

Row | IC50 [1] | IC50 [2] | IC50 [3] | IC50 [4] | Structure (SMILES) | IC50 (KRAS-WT) | IC50 [5] | IC50 (KRAS-G12D) | IC50 (KRAS-G12V) | IC50 (KRAS-G13D) | IC50 (MKN-1 cells) | IC50 (PANC08.13 cells) | IC50 (AsPC-1 cells) | IC50 (SW620 cells)
1 | 40.1 nM | 32.6 nM | 66.7 nM | 58 nM | Cc1cc2[nH]ncc2c(-c2nccc3c2sc2nc(OC[C@@]45CCCN4C[C@H](F)C5)nc(N4CCOC[C@@](C)(O)C4)c23)c1C(C)C [Ex-137, (6S)-4-(2-(((2R, 7aS)-2-fluorotetra-hydro-1H-pyrrol-izin-7a(5H)-yl)meth-oxy)-8-(5-isopropyl-6-methyl-1H-ind-azol-4-yl)pyrido [4′,3′:4,5]thieno[2,3-d]pyrimidin-4-yl)-6-methyl-1,4-oxaze-pan-6-ol] |  |  |  |  |  |  |  |  | 
2 | 1140 nM | 380 nM | 837 nM | 732 nM | C[C@@]1(O)COCCN(c2nc(OC[C@@]34CCCN3C[C@H](F)C4)nc3c(I)c4c(-c5c(C6CC6)c(Cl)cc6[nH]ncc56)nccn4c23)C1 [Ex-303, (S)-4-(9-(6-chloro-5-cyclopropyl-1H-indazol-4-yl)-2-(((2R,7aS)-2-fluorotetrahydro-1H-pyrrolizin-7a(5H)-yl)methoxy)-10-iodopyrazino [1′,2′:1,5]pyrrolo [3,2-d]pyrimidin-4-yl)-6-methyl-1,4-oxazepan-6-ol] |  |  |  |  |  |  |  |  | 
3 | 590 nM | 493 nM | 936 nM | 767 nM | CO[C@]1(C)COCCN(c2nc(OC[C@@]34CCCN3C[C@H](F)C4)nc3sc4c(-c5c(C(F)(F)F)c(C)cc6[nH]ncc56)nccc4c23)C1 [Ex-203, (6S)-4-(2-(((2R,7aS)-2-fluorotetrahydro-1H-pyrrolizin-7a(5H)-yl)methoxy)-8-(6-methyl-5-(trifluoromethyl)-1H-indazol-4-yl)pyrido[4′,3′:4,5]thieno[2,3-d]pyrimidin-4-yl)-6-methoxy-6-methyl-1,4-oxazepane] |  |  |  |  |  |  |  |  | 
4 | 107 nM | 49.5 nM | 86.1 nM | 107 nM | Cc1cc2[nH]ncc2c(-c2nccn3c2c(C)c2nc(OC[C@@]45CCCN4C[C@H](F)C5)nc(N4CCOC[C@@](C)(O)C4)c23)c1C(F)(F)F (single isomer, unassigned) [Ex-301] |  |  |  |  |  |  |  |  | 
5 |  |  |  |  | C=Cc1c(C)cc2[nH]ncc2c1-c1nccc2c1sc1nc(OC[C@@]34CCCN3C[C@H](F)C4)nc(N3CCOC[C@@](C)(O)C3)c12 [Ex-35, (6S)-4-(2-(((2R,7aS)-2-fluorotetrahydro-1H-pyrrolizin-7a(5H)-yl)methoxy)-8-(6-methyl-5-vinyl-1H-indazol-4-yl)pyrido[4′,3′:4,5]thieno[2,3-d]pyrimidin-4-yl)-6-methyl-1,4-oxazepan-6-ol] | 66.7 nM | 29.2 nM | 31.9 nM | 73.7 nM | 47.1 nM | 121 nM | 73.5 nM | 264 nM | 172 nM
6 |  |  |  |  | CCOc1c(C)cc2[nH]ncc2c1-c1nccc2c1sc1nc(OC[C@@]34CCCN3C[C@H](F)C4)nc(N3CCOC[C@@](C)(O)C3)c12 [Ex-38, (6S)-4-(8-(5-ethoxy-6-methyl-1H-indazol-4-yl)-2-(((2R,7aS)-2-fluorotetrahydro-1H-pyrrolizin-7a(5H)-yl)methoxy)pyrido[4′,3′:4,5]thieno[2,3-d]pyrimidin-4-yl)-6-methyl-1,4-oxazepan-6-ol] | 239 nM | 36 nM | 96.6 nM | 186 nM | 123 nM | 197 nM | 122 nM | 395 nM | 277 nM
7 |  |  |  |  | Cc1cc2[nH]ncc2c(-c2nccc3c2sc2nc(OC[C@@]45CCCN4C[C@H](F)C5)nc(N4CCOC[C@@](C)(O)C4)c23)c1OC(F)(F)Cl [Ex-39, (6S)-4-(8-(5-(chlorodifluoromethoxy)-6-methy1-1H-indazol-4-yl)-2-(((2R,7aS)-2-fluorotetrahydro-1H-pyrrolizin-7a(5H)-yl)methoxy)pyri-do[4′,3′:4,5]thi-eno[2,3-d]pyrimidin-4-yl)-6-methyl-1,4-oxazepan-6-ol] | 30 nM | 9.42 nM | 9.23 nM | 30.9 nM | 20.4 nM | 44.2 nM | 35.7 nM | 118 nM | 74.3 nM
8 |  |  |  |  | Cc1cc2[nH]ncc2c(-c2nccc3c4c(N5CCOC[C@@](C)(O)C5)nc(OC[C@@]56CCCN5C[C@H](F)C6)nc4n(C)c23)c1C(F)(F)F (single isomer, unassigned) [Ex-1] | 93.4 nM | 19.8 nM | 41.5 nM | 55.6 nM | 77.4 nM | 222 nM | 237 nM | 376 nM | 429 nM
9 |  |  |  |  | Cc1cc2[nH]ncc2c(-c2nccc3c4c(N5CCC[C@@](C)(O)C5)nc(OC[C@]5(CN(C)C)CC5(F)F)nc4n(C)c23)c1C(F)(F)F [Ex-6, (3R)-1-(2-(((R)-1-((dimethylamino)methyl)-2,2-difluorocyclopropyl)methoxy)-9-methyl-8-(6-methyl-5-(trifluoromethyl)-1H-indazol-4-yl)-9H-pyrido[4′,3′:4,5]pyrrolo[2,3-d]pyrimidin-4-yl)-3-methylpiperidin-3-ol] | 218 nM | 104 nM | 98.1 nM | 128 nM | 49 nM | 304 nM | 188 nM | 460 nM | 291 nM
10 |  |  |  |  | C#Cc1c(C)cc2[nH]ncc2c1-c1nccc2c3c(N4CCOC[C@@](C)(O)C4)nc(OC[C@@]45CCCN4C[C@H](F)C5)nc3n(C)c12 (single isomer, unassigned) [Ex-7] | 42.9 nM | 129 nM | 22.3 nM | 30.2 nM | 22.9 nM | 142 nM | 99.9 nM | 248 nM | 233 nM
